Reference: paper PMC10721329, “Quisinostat is a brain-penetrant radiosensitizer in glioblastoma” (JCI Insight, 2023)
Several values for one entry are separate records, joined by “and”; a condition that tells them apart may be missing. Equal entries are not always repeated.

Tests used:
Assay in all cases: CellTiter-Glo dose-response cell viability assay
Format in all cases: cell-based, human
[1] = test system: GB126 patient-derived GSC line; settings: Homo sapiens
Procedure: (§1) QST (JNJ-26481585) is a second-generation hydroxamic acid harboring remarkable selectivity toward class I HDACs, with a biochemical IC50 of 0.1 nM for HDAC1 ([13]). […] To determine the cytotoxic effects of QST, we performed a dose-titration cell viability assay in 7 patient-derived GSC lines (BT145, GB187, GB239, GB282, GB71, GB82, and GB126) and 1 long-term serum-grown human GBM cell line (U87). Because GBMs display a high degree of intratumoral heterogeneity, we used GSCs derived from both primary and recurrent GBMs that harbored distinct genetic mutations or aberrations, growth rates, MGMT promoter methylation status, and gene expression profiles (Supplemental Figure 1; supplemental material available online with this article; https://doi.org/10.1172/jci.insight.167081DS1). Cell lines were treated with various concentrations of QST (10–1000 nM), and cell viability was measured 3–5 days later (Figure 1, A and B). […] Treatment with QST at the IC50 induced significant inhibition of proliferation (Ki67) and an increase in programmed cell death (cleaved caspase 3) in 2 different GSC lines (Figure 1, C and D). Additional analyses confirmed that QST induces apoptosis after short-term treatment through increased staining of the apoptotic marker annexin V (Figure 2A) and cell cycle arrest (in G2- or S-phase; Figure 2B and Supplemental Figure 1B).
(§2) GSCs were seeded in laminin-coated tissue culture–treated 96-well plates (clear bottom, white plate; Corning) at a density of 1000–5000 cells per well (cell line dependent) in GSC media. U87-MG were seeded using their normal growth conditions without laminin (10% bovine calf serum in DMEM). All cells were incubated at 37°C and allowed to adhere overnight. The next day, cells were treated with incremental concentrations of QST (Selleckchem; 0, 10, 25, 50, 100, 250, 500, and 1000 nM) diluted in media. Cells treated without QST were treated with DMSO diluted in media. Following treatment with QST, cells were grown for 3 to 5 days (cell line dependent), and cell viability was measured and quantified. All cell viability measurements were performed using the CellTiter-Glo luminescent cell viability assay (Promega) following the manufacturer’s instructions. For the sulforhodamine B colorimetric assay for cytotoxicity, the protocol was performed as described elsewhere ([33]). All cell viability results represent the mean of at least 3 biological replicates, each containing 3 technical replicates.

[2] = test system: GB71 patient-derived GSC line
Procedure: as §1, §2

[3] = test system: GB82 patient-derived GSC line
Procedure: as §1, §2

[4] = test system: BT145 patient-derived GSC line
Procedure: as §1, §2

[5] = Homo sapiens, QST 10 nM (log[nM] 1), read-out: Cell viability (fraction of DMSO control)
[6] = Homo sapiens, QST 25 nM (log[nM] 1.39794), read-out: Cell viability (fraction of DMSO control)
[7] = Homo sapiens, QST 50 nM (log[nM] 1.69897), read-out: Cell viability (fraction of DMSO control)
[8] = Homo sapiens, QST 100 nM (log[nM] 2), read-out: Cell viability (fraction of DMSO control)
[9] = Homo sapiens, QST 250 nM (log[nM] 2.39794), read-out: Cell viability (fraction of DMSO control)
[10] = Homo sapiens, QST 500 nM (log[nM] 2.69897), read-out: Cell viability (fraction of DMSO control)
[11] = Homo sapiens, QST 1000 nM (log[nM] 3), read-out: Cell viability (fraction of DMSO control)

Q: `Cn1cc(CNCC2CCN(c3ncc(C(=O)NO)cn3)CC2)c2ccccc21` [QST, quisinostat] was tested. Which viability at 0.01 µM ([1]; GB126 (GB126xTdT), QST 10 nM (log[nM] 1), no IR, read-out: Cell viability (fraction of DMSO control)) did it give?
A: Its viability at 0.01 µM is 79.2%.

Q: And the viability at 0.025 µM ([1]; GB126 (GB126xTdT), QST 25 nM (log[nM] 1.39794), no IR, read-out: Cell viability (fraction of DMSO control))?
A: Its viability at 0.025 µM is 66.8%.

Q: What about the viability at 0.05 µM ([1]; GB126 (GB126xTdT), QST 50 nM (log[nM] 1.69897), no IR, read-out: Cell viability (fraction of DMSO control)) of the same compound?
A: Its viability at 0.05 µM is 57.6%.

Q: What about the viability at 0.1 µM ([1]; GB126 (GB126xTdT), QST 100 nM (log[nM] 2), no IR, read-out: Cell viability (fraction of DMSO control)) of the same compound?
A: The viability at 0.1 µM was 44.3%.

Q: And the IC50 ([1]; GB126, 3-5 days)?
A: The IC50 was 86 nM.

Q: What about the IC50 ([2]; Homo sapiens, 3-5 days) of the same compound?
A: The IC50 was 29 nM.

Q: And the viability at 0.01 µM [2, 5]?
A: The viability at 0.01 µM was 76.3%.

Q: What about the viability at 0.025 µM [2, 6] of the same compound?
A: The viability at 0.025 µM was 68.5%.

Q: What about the viability at 0.05 µM [2, 7] of the same compound?
A: Its viability at 0.05 µM is 59.2%.

Q: What about the viability at 0.1 µM [2, 8] of the same compound?
A: The viability at 0.1 µM was 46.1%.

Q: And the viability at 0.25 µM [2, 9]?
A: The viability at 0.25 µM was 31.5%.

Q: And the viability at 0.5 µM [2, 10]?
A: The viability at 0.5 µM was 24.4%.

Q: And the viability at 1 µM [2, 11]?
A: Its viability at 1 µM is 21.1%.

Q: And the “Cell viability (fraction of DMSO control)” value ([2]; QST 10 nM (log[nM] 1))?
A: Its value is 0.687 and 0.6848.

Q: And the “Cell viability (fraction of DMSO control)” value ([2]; QST 25 nM (log[nM] 1.39794))?
A: Its value is 0.6366 and 0.6132.

Q: What about the “Cell viability (fraction of DMSO control)” value ([2]; QST 50 nM (log[nM] 1.69897)) of the same compound?
A: Its value is 0.5332 and 0.5323.

Q: And the “Cell viability (fraction of DMSO control)” value ([2]; QST 100 nM (log[nM] 2))?
A: Its value is 0.436 and 0.4247.

Q: And the “Cell viability (fraction of DMSO control)” value ([2]; QST 250 nM (log[nM] 2.39794))?
A: The value was 0.3077 and 0.3032.

Q: What about the “Cell viability (fraction of DMSO control)” value ([2]; QST 500 nM (log[nM] 2.69897)) of the same compound?
A: Its value is 0.2399 and 0.2412.

Q: What about the “Cell viability (fraction of DMSO control)” value ([2]; QST 1000 nM (log[nM] 3)) of the same compound?
A: Its value is 0.2213 and 0.2152.

Q: And the IC50 ([3]; Homo sapiens, 3-5 days)?
A: The IC50 was 65 nM.

Q: And the viability at 0.01 µM [3, 5]?
A: Its viability at 0.01 µM is 78.8%.

Q: What about the viability at 0.025 µM [3, 6] of the same compound?
A: Its viability at 0.025 µM is 77.1%.

Q: And the viability at 0.05 µM [3, 7]?
A: Its viability at 0.05 µM is 66.9%.

Q: What about the viability at 0.1 µM [3, 8] of the same compound?
A: The viability at 0.1 µM was 51.1%.

Q: And the viability at 0.25 µM [3, 9]?
A: Its viability at 0.25 µM is 37.7%.

Q: What about the viability at 0.5 µM [3, 10] of the same compound?
A: The viability at 0.5 µM was 30.8%.

Q: What about the viability at 1 µM [3, 11] of the same compound?
A: Its viability at 1 µM is 26.5%.

Q: What about the “Cell viability (fraction of DMSO control)” value ([3]; QST 10 nM (log[nM] 1)) of the same compound?
A: The value was 0.7668 and 0.8052.

Q: And the “Cell viability (fraction of DMSO control)” value ([3]; QST 25 nM (log[nM] 1.39794))?
A: The value was 0.6655 and 0.6833.

Q: And the “Cell viability (fraction of DMSO control)” value ([3]; QST 50 nM (log[nM] 1.69897))?
A: Its value is 0.651 and 0.6783.

Q: And the “Cell viability (fraction of DMSO control)” value ([3]; QST 100 nM (log[nM] 2))?
A: Its value is 0.4804 and 0.526.

Q: What about the “Cell viability (fraction of DMSO control)” value ([3]; QST 250 nM (log[nM] 2.39794)) of the same compound?
A: The value was 0.3237 and 0.3695.

Q: What about the “Cell viability (fraction of DMSO control)” value ([3]; QST 500 nM (log[nM] 2.69897)) of the same compound?
A: The value was 0.2733 and 0.2932.

Q: And the “Cell viability (fraction of DMSO control)” value ([3]; QST 1000 nM (log[nM] 3))?
A: The value was 0.2807 and 0.2449.

Q: What about the IC50 ([4]; Homo sapiens, 3-5 days) of the same compound?
A: The IC50 was 75 nM.

Q: And the viability at 0.01 µM ([4]; Homo sapiens, QST 10 nM (log[nM] 1), no IR, read-out: Cell viability (fraction of DMSO control))?
A: The viability at 0.01 µM was 70%.

Q: And the viability at 0.025 µM ([4]; Homo sapiens, QST 25 nM (log[nM] 1.39794), no IR, read-out: Cell viability (fraction of DMSO control))?
A: The viability at 0.025 µM was 64%.

Q: What about the viability at 0.05 µM ([4]; Homo sapiens, QST 50 nM (log[nM] 1.69897), no IR, read-out: Cell viability (fraction of DMSO control)) of the same compound?
A: Its viability at 0.05 µM is 40%.

Q: What about the viability at 0.1 µM ([4]; Homo sapiens, QST 100 nM (log[nM] 2), no IR, read-out: Cell viability (fraction of DMSO control)) of the same compound?
A: Its viability at 0.1 µM is 34.2%.

Q: And the viability at 0.25 µM ([4]; Homo sapiens, QST 250 nM (log[nM] 2.39794), no IR, read-out: Cell viability (fraction of DMSO control))?
A: The viability at 0.25 µM was 25.7%.

Q: And the viability at 0.5 µM ([4]; Homo sapiens, QST 500 nM (log[nM] 2.69897), no IR, read-out: Cell viability (fraction of DMSO control))?
A: Its viability at 0.5 µM is 18.6%.

Q: And the viability at 1 µM ([4]; Homo sapiens, QST 1000 nM (log[nM] 3), no IR, read-out: Cell viability (fraction of DMSO control))?
A: Its viability at 1 µM is 13%.

Q: And the “Cell viability (fraction of DMSO control)” value ([4]; QST 10 nM (log[nM] 1), no IR)?
A: Its value is 0.7896 and 0.7644.

Q: And the “Cell viability (fraction of DMSO control)” value ([4]; QST 25 nM (log[nM] 1.39794), no IR)?
A: The value was 0.7548 and 0.7039.

Q: And the “Cell viability (fraction of DMSO control)” value ([4]; QST 50 nM (log[nM] 1.69897), no IR)?
A: Its value is 0.4986 and 0.5266.

Q: What about the “Cell viability (fraction of DMSO control)” value ([4]; QST 100 nM (log[nM] 2), no IR) of the same compound?
A: The value was 0.3524 and 0.2775.

Q: What about the “Cell viability (fraction of DMSO control)” value ([4]; QST 250 nM (log[nM] 2.39794), no IR) of the same compound?
A: Its value is 0.3528 and 0.3396.

Q: What about the “Cell viability (fraction of DMSO control)” value ([4]; QST 500 nM (log[nM] 2.69897), no IR) of the same compound?
A: Its value is 0.2416 and 0.229.

Q: And the “Cell viability (fraction of DMSO control)” value ([4]; QST 1000 nM (log[nM] 3), no IR)?
A: Its value is 0.1715.
